From US20230043678A1, “USE OF 5-METHYLTETRAHYDROFOLATE” (priority 2019, published 2023)
Like-named read-outs stand apart in the source and are kept apart here.

Tests used:
heart of neonatal mice = details: mouse, in vivo
Procedure: (§1) 75 7-week-old female C57BL/6J mice and 25 8-week-old male C57BL/6J mice were provided by Shanghai Lingchang Biotechnology Co., Ltd. with a certificate number of SCXK (Shanghai) 2018-0003. […] The female mice were randomly divided into 5 groups according to body weight: a solvent control group, a folic acid (151.66 μg/kg) group, a folic acid (303.32 μg/kg) group, a calcium 5-methyltetrahydrofolate (converted to folic acid, 151.66 μg/kg) group and a calcium 5-methyl tetrahydrofolate (converted to folic acid, 303.32 μg/kg) group. 1.1275 unit mass of the calcium 5-methyltetrahydrofolate equaled to 1 unit mass of the folic acid.
(§2) 15 mice were in each group and numbered by a toe clipping method. The mice were intragastrically administrated once a day on the second day after grouping. One week after the pre-administration, male and female mice were caged at a ratio of […], a vaginal plug was observed every day from the next day, and a day when the vaginal plug was seen was recorded as day 0.5 of pregnancy. After 14 days of caging, the female mice stopped the administration, the male mice were removed, and the pregnant female mice were fed alone until litter.
In addition, 4-5 mice were randomly selected from each group and the 6-day-old small animals were subjected to cardiac echocardiography (Vevo 2100 Imaging System, VisualSonics, Toronto, ON, Canada).

zebrafish embryos [1] = test: Teratogenic effect of folic acid on zebrafish embryos (Example 3); details: for embryo coverage: 8 hpf
Procedure: Transgenic zebrafish (fli-1:EGFP) were from the Model Animal Research Center of Nanjing University. Adult zebrafish aged less than 1 were used for experiment and fed at a water pH value of 7±0.2, a temperature around 28° C. and a ratio of illumination to darkness of 14 h:10 h, and with Artemia salina eggs twice a day. Three zebrafish, one female, two males, were placed in a spawning box the night before and eggs were collected the next morning. Fish eggs were placed in an embryo culture medium (prepared with 0.2 g/L of sea salt) and cultured at 28° C. […] Dead embryos were cleaned up in time. A phenotype of malformation was observed, the number of all abnormal zebrafish where the malformation was present was recorded and a malformation rate and a rescue rate of each group were calculated. Morphological defects, a heart rate, cardiac morphology and other indicators were observed and evaluated by an SMZ745T inverted stereomicroscope.

[2] = test system: transcription factors (Nkx2.5, amhc, vmhc, hand2, has2, mef2a, mef2c, bmp2b, ephrinB2, ephB4) in zebrafish embryos; test: qRT-PCR expression of transcription factors during development of zebrafish embryos (Example 4); type: in vivo; details: 8 mM FA
Procedure: In order to explore an effect of folic acid on epigenetics during development of the zebrafish embryos, the zebrafish embryos at different developmental stages were collected for testing. […] A fluorescent dye SYBR Green was used in the qRT-PCR experiment. The qRT-PCR was conducted according to the instructions of an SYBR Green qPCR Master Mix kit and a detection was conducted on an ABI (HT 7900) PCR instrument. […] An expression of β-actin was used as an internal reference and relative expression levels of other genes were calculated by a ΔΔCt method.

[3] = test system: congenital heart defects in offspring; details: cited from earlier work
zebrafish embryos [4] = details: 6 mM FA
Procedure: Transgenic zebrafish (fli-1:EGFP) were from the Model Animal Research Center of Nanjing University. Adult zebrafish aged less than 1 were used for experiment and fed at a water pH value of 7±0.2, a temperature around 28° C. and a ratio of illumination to darkness of 14 h:10 h, and with Artemia salina eggs twice a day. Three zebrafish, one female, two males, were placed in a spawning box the night before and eggs were collected the next morning. Fish eggs were placed in an embryo culture medium (prepared with 0.2 g/L of sea salt) and cultured at 28° C. […] Dead embryos were cleaned up in time. Each experiment was conducted in triplicate. […] A phenotype of malformation was observed, the number of all abnormal zebrafish where the malformation was present was recorded and a malformation rate and a rescue rate of each group were calculated. Morphological defects, a heart rate, cardiac morphology and other indicators were observed and evaluated by an SMZ745T inverted stereomicroscope.

fetal rat heart = test: Effect of high-dose folic acid on fetal rat heart, histopathology (Example 8); type: in vivo, SD rats; details: for Development delay / Malformation cases / Malformation rate / Sparse myocardial trabeculae / Ventricular defects/septal defects: fetal rats
Procedure: 28 each of female and male adult healthy SD rats, weighing about 200-250 g, were purchased from SPF (Beijing) biotechnology co., LTD. After all animals were purchased, general physiological indicators, body weight and feeding of the animals were observed. The animals were adaptively fed for one week. […] The animals were fed day and night in natural lighting, and at a room temperature of 18-26° C. and a relative humidity of 40%-70%.
The obtained 16 pregnant mice were randomly divided into 4 groups with 4 rats in each group according to body weight: a normal group, a high-dose folic acid group, a middle-dose folic acid group and a low-dose folic acid group. The high-dose folic acid (36.44 mg/kg) group, the middle-dose folic acid (18.22 mg/kg) group, the low-dose folic acid (9.11 mg/kg) group and a blank control group were separately set. The pregnant mice were intragastrically administrated with a 1 ml/100 g solution. The pregnant mice were given pure water in the normal group. The pregnant mice in the other groups started to be administrated on the 2nd day after grouping once a day for 21 consecutive days. The pregnant mice in each group freely ate and drunk. After the female rats were administrated for 7 days, male and female rats were mated in a cage at a ratio of 1:1 overnight, a vaginal plug was checked the next morning, a day when the vaginal plug was found was regarded as day 0 of pregnancy, the pregnant mice were separately fed and administrated for 21 consecutive days, and a fetus was obtained by cesarean section.
Routine histopathologic paraffin sample preparation, serial section (a thickness of 5 μm) and HE staining were conducted. Sample preparation: routine histopathologic paraffin sample sections were prepared and each sample was 1 paraffin block; and section: each numbered sample had 20 sections. A starting point of mounting was when the paraffin block was sliced, there were ventricular mounting slices and 4 consecutive tissue points were mounted on each glass slide on average. HE staining: there were 20 glass slides for each sample and every other 1 slide was taken for HE staining, a total of 10 slides. Observation and analysis: Leica panoramic image acquisition and comparative analysis were conducted. Fetal rat hearts were dissected and sliced for observation, and the results were as follows.

heart of fetal mice = test: Effects of folic acid and 5-methyltetrahydrofolate on heart development of fetal/neonatal mice, histology (Example 10); details: mouse, in vivo
Procedure: as §1, §2
After the detection, thoracic and abdominal cavities of the mice were dissected, cardiac morphology and beating were observed under a stereoscopic microscope (SMZ168, Motic, Xiamen, Fujian, China), and photographs and video recordings were taken (Motic Image Plus 3.0, Motic, Xiamen, Fujian, China). The mice were sacrificed and the hearts, the livers, the kidneys and the lungs were harvested. The hearts and the livers of the neonatal mice were selected from each group and fixed with 4% paraformaldehyde, the fixed hearts and livers were embedded in paraffin, the embedded hearts and livers were sliced and the slices were stained with H&E. A half of the other tissues were immersed in RNA later for fixation and the other half were directly immersed in liquid nitrogen and frozen for a subsequent experiment.
1-day-old neonatal mice were sacrificed, the hearts were taken and fixed with 4% paraformaldehyde, the fixed hearts were embedded in paraffin, the embedded hearts were sliced, the slices were stained with H&E and pictures were taken under a normal microscope.

[5] = folic acid 9.11 mg/kg intragastric
[6] = folic acid 18.22 mg/kg intragastric
[7] = folic acid 36.44 mg/kg intragastric

Nc1nc2ncc(CNc3ccc(C(=O)N[C@@H](CCC(=O)O)C(=O)O)cc3)nc2c(=O)[nH]1 [FA, pteroylglutamic acid]
left ventricular internal diameter end-diastole (LVID(d)) (heart of neonatal mice): significantly lower than those of other groups | left ventricular internal diameter end-systole (LVID(s)) (heart of neonatal mice): significantly lower than those of other groups | embryo coverage (zebrafish embryos [1]; 2 mM FA): covered completely | heart shape and lower intestinal network blood vessels (zebrafish embryos [1]; 2 mM FA, 72 hpf): normal heart shape and normal development of lower intestinal network blood vessels | heart shape and lower intestinal network blood vessels (zebrafish embryos [1]; FA 4 mM or above, 72 hpf): pericardium edema malformations, atrial and ventricular elongation and developmental disorders of lower intestinal network blood vessels | embryo coverage (zebrafish embryos [1]; FA groups of other concentrations (4-10 mM)): not covered completely | survival rate of embryos (zebrafish embryos [1]; all FA groups (2, 4, 6, 8, 10 mM)): low survival rate of embryos | body length of embryos (zebrafish embryos [1]; folic acid 8 mM, 72 hpf): significantly shortened the body length of the embryos | embryo morphology (zebrafish embryos [1]; folic acid, 24 hpf): developmental malformation of heads and tails of the embryos | embryonic heart rate (zebrafish embryos [1]; folic acid, especially at 48 hpf): affected an embryonic heart rate | expression of bmp2b gene ([2]; 24 hpf): decreased an expression of a bmp2b gene | expression of mef2c gene ([2]; 24 hpf): increased an expression of a mef2c gene | expression of ephb4 gene ([2]; 48 hpf): inhibited | expression of has2 gene ([2]; 48 hpf): inhibited | expression of mef2c gene ([2]; 48 hpf): inhibited | expression of vmhc gene ([2]; 48 hpf): increased an expression of a vmhc gene | reduction of risk of CHD ([3]; folic acid supplementation, hospital case-control studies in Guangdong, Hubei, Fujian and Shanxi): 65% | lower risk of giving birth to infants with heart defects ([3]; women taking folic acid, case-control study, north of the Netherlands): approximately 20% | 10 s heart rate (48 hpf) and body length (72 hpf) (zebrafish embryos [4]): seriously led to bradycardia and a shortened body length of zebrafish | survival rate of zebrafish (zebrafish embryos [4]; 2-72 hpf): severely led to a low survival rate of zebrafish | embryo development (zebrafish embryos [4]; 8 hpf): delayed development of the zebrafish embryos | embryo phenotype (zebrafish embryos [4]; 24 hpf): led to small heads and short tails of zebrafish | embryo phenotype (zebrafish embryos [4]; 48 hpf): led to pericardium edema, dyspigmentation, and intersegmental vascular hypoplasia of zebrafish | pericardium edema (zebrafish embryos [4]; 48 hpf): seriously led to pericardium edema of zebrafish | embryo phenotype (zebrafish embryos [4]; 72 hpf): led to developmental disorders of lower intestinal network blood vessels of the zebrafish | Development delay (fetal rat heart; [5]): 1 | Malformation cases (fetal rat heart; [5]): 3 | Malformation rate (fetal rat heart; [5]): 10.7% | Sparse myocardial trabeculae (fetal rat heart; [5]): 1 | Ventricular defects/septal defects (fetal rat heart; [5]): 3 | Development delay (fetal rat heart; [6]): 1 | Malformation cases (fetal rat heart; [6]): 4 | Malformation rate (fetal rat heart; [6]): 15.4% | Sparse myocardial trabeculae (fetal rat heart; [6]): 2 | Ventricular defects/septal defects (fetal rat heart; [6]): 2 | Development delay (fetal rat heart; [7]): 3 | Malformation cases (fetal rat heart; [7]): 4 | Malformation rate (fetal rat heart; [7]): 25% | Sparse myocardial trabeculae (fetal rat heart; [7]): 1 | Ventricular defects/septal defects (fetal rat heart; [7]): 4 | litter rate of rats (fetal rat heart; folic acid, high dose): reduce the litter rate under a high dose | ventricular septum disappeared (number of animals) (fetal rat heart; high-dose folic acid group 36.44 mg/kg): 1 | heart slices (H&E) of 1-day-old neonatal mice (heart of fetal mice): A small block of a heart wall was defective
